Values joined by “and” are separate entries in the source; they are usually repeats but may differ in a detail not shown here. Identical values can stand only once. Inconclusive results and toxic doses are left out.
Test system: BDF1 mice, P388 leukemia ip, median survival T/C
Assay: NCI In Vivo Anticancer Drug Screen. Data for tumor model P388 Leukemia (intraperitoneal) in B6D2F1 (BDF1) mice
Details: endpoint: median survival time, higher = longer survival
Method in brief: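 Transplantable tumour in mice; compound vs vehicle dosing; survival scored; ratio of treated to control reported.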

[1] = dose: 50.0 mg/kg/injection, schedule: Q01DX009 (ip), vehicle: saline with Tween-80
[2] = dose: 100.0 mg/kg/injection, schedule: Q01DX009 (ip), vehicle: saline with Tween-80
[3] = dose: 100.0 mg/kg/injection, schedule: Q04DX003 (ip), vehicle: saline with Tween-80
[4] = dose: 200.0 mg/kg/injection, schedule: Q04DX003 (ip), vehicle: saline with Tween-80

SMILES: Cc1cccc2cc3c(ccc4ccccc43)c[n+]12
- T/C (dose: 1.0 mg/kg/injection, schedule: Q01DX009 (ip), vehicle: Klucel (hydroxypropylcellulose) (HPC)): 109 % of control
- T/C (dose: 2.0 mg/kg/injection, schedule: Q01DX009 (ip), vehicle: Klucel (hydroxypropylcellulose) (HPC)): 100 % of control
- T/C (dose: 4.0 mg/kg/injection, schedule: Q01DX009 (ip), vehicle: Klucel (hydroxypropylcellulose) (HPC)): 100 % of control
- T/C (dose: 8.0 mg/kg/injection, schedule: Q01DX009 (ip), vehicle: Klucel (hydroxypropylcellulose) (HPC)): 113 % of control

SMILES: CCc1noc(CC)c1CC1=C2CCC3(C)CCC(C)(C)CC3C2(C)CCC1=O (centres undefined)
- T/C (dose: 100.0 mg/kg/injection, schedule: Q01DX001 (ip), vehicle: saline with Tween-80): 95 % of control
- T/C (dose: 200.0 mg/kg/injection, schedule: Q01DX001 (ip), vehicle: saline with Tween-80): 90 % of control
- T/C (dose: 400.0 mg/kg/injection, schedule: Q01DX001 (ip), vehicle: saline with Tween-80): 90 % of control

SMILES: CCN(Cc1ccc(Cl)c(Cl)c1)c1ccc2nc(N)nc(N)c2c1C
- T/C (dose: 1.56 mg/kg/injection, schedule: Q01DX009 (ip), vehicle: water): 105 % of control
- T/C (dose: 6.25 mg/kg/injection, schedule: Q01DX009 (ip), vehicle: water): 151 % of control
- T/C (dose: 12.5 mg/kg/injection, schedule: Q01DX009 (ip), vehicle: water): 98 % of control
- T/C (dose: 12.5 mg/kg/injection, schedule: Q04DX003 (ip), vehicle: Klucel (hydroxypropylcellulose) (HPC)): 107 % of control
- T/C (dose: 12.5 mg/kg/injection, schedule: Q04DX003 (ip), vehicle: water): 103 % of control and 118 % of control
- T/C (dose: 25.0 mg/kg/injection, schedule: Q01DX009 (ip), vehicle: water): 89 % of control
- T/C (dose: 25.0 mg/kg/injection, schedule: Q04DX003 (ip), vehicle: Klucel (hydroxypropylcellulose) (HPC)): 109 % of control
- T/C (dose: 50.0 mg/kg/injection, schedule: Q04DX003 (ip), vehicle: Klucel (hydroxypropylcellulose) (HPC)): 115 % of control
- T/C (dose: 50.0 mg/kg/injection, schedule: Q04DX003 (ip), vehicle: water): 159 % of control and 189 % of control
- T/C (dose: 100.0 mg/kg/injection, schedule: Q04DX003 (ip), vehicle: Klucel (hydroxypropylcellulose) (HPC)): 88 % of control
- T/C (dose: 100.0 mg/kg/injection, schedule: Q04DX003 (ip), vehicle: water): 109 % of control

SMILES: CC(=O)Nc1cccc([N+](=O)[O-])c1
- T/C [1]: 100 % of control
- T/C [2]: 100 % of control
- T/C (dose: 200.0 mg/kg/injection, schedule: Q01DX009 (ip), vehicle: saline with Tween-80): 104 % of control

SMILES: O=C(Oc1ccc(-c2ccc(Br)cc2)cc1)c1ccco1
- T/C [1]: 90 % of control
- T/C [2]: 90 % of control

SMILES: COc1cc(OC)cc(C2=NNc3n[nH]c(=S)n3N2)c1
- T/C [3]: 100 % of control
- T/C [4]: 95 % of control
- T/C (dose: 400.0 mg/kg/injection, schedule: Q04DX003 (ip), vehicle: saline with Tween-80): 100 % of control

SMILES: BrCCCC[P+](c1ccccc1)(c1ccccc1)c1ccccc1
- T/C (dose: 6.25 mg/kg/injection, schedule: Q01DX010 (ip), vehicle: saline): 113 % of control
- T/C (dose: 12.5 mg/kg/injection, schedule: Q01DX010 (ip), vehicle: saline): 118 % of control

SMILES: CCSc1ccc2c(c1)N(CCCN1CCN(C)CC1)c1ccccc1S2
- T/C (dose: 15.0 mg/kg/injection, schedule: Q04DX003 (ip), vehicle: saline): 110 % of control
- T/C (dose: 25.0 mg/kg/injection, schedule: Q01DX009 (ip), vehicle: saline with Tween-80): 112 % of control
- T/C (dose: 25.0 mg/kg/injection, schedule: Q01DX009 (ip), vehicle: saline): 92 % of control
- T/C (dose: 30.0 mg/kg/injection, schedule: Q04DX003 (ip), vehicle: saline): 120 % of control
- T/C [1]: 91 % of control
- T/C (dose: 50.0 mg/kg/injection, schedule: Q01DX009 (ip), vehicle: saline): 103 % of control
- T/C (dose: 100.0 mg/kg/injection, schedule: Q04DX003 (ip), vehicle: saline): 90 % of control
- T/C (dose: 120.0 mg/kg/injection, schedule: Q04DX003 (ip), vehicle: saline): 105 % of control
- T/C (dose: 200.0 mg/kg/injection, schedule: Q04DX003 (ip), vehicle: saline): 150 % of control

SMILES: CCC(C)SC1=NC=NC2=NC=NC21 (centres undefined)
- T/C [1]: 100 % of control
- T/C [2]: 96 % of control
- T/C [3]: 91 % of control
- T/C [4]: 100 % of control

SMILES: COc1cc2ccc(CC3NCCc4cc5c(cc43)OCO5)cc2cc1OC (centres undefined)
- T/C (dose: 22.0 mg/kg/injection, schedule: Q01DX009 (ip), vehicle: saline with Tween-80): 105 % of control
- T/C (dose: 33.0 mg/kg/injection, schedule: Q01DX009 (ip), vehicle: saline with Tween-80): 110 % of control
- T/C (dose: 50.0 mg/kg/injection, schedule: Q01DX009 (ip), vehicle: other): 100 % of control
- T/C [1]: 115 % of control
- T/C (dose: 75.0 mg/kg/injection, schedule: Q01DX009 (ip), vehicle: saline with Tween-80): 110 % of control
- T/C (dose: 100.0 mg/kg/injection, schedule: Q01DX009 (ip), vehicle: other): 100 % of control
- T/C (dose: 100.0 mg/kg/injection, schedule: Q04DX003 (ip), vehicle: other): 118 % of control
- T/C (dose: 200.0 mg/kg/injection, schedule: Q04DX003 (ip), vehicle: other): 118 % of control

SMILES: CC(NC(=O)c1ccc(Cl)cc1Cl)c1ccccc1 (centres undefined)
- T/C (dose: 100.0 mg/kg/injection, schedule: Q01DX001 (ip), vehicle: other): 100 % of control
- T/C (dose: 400.0 mg/kg/injection, schedule: Q01DX001 (ip), vehicle: other): 95 % of control

SMILES: CCOC(=O)CN1C(=O)C(Cl)=C(Cl)C1=O
- T/C (dose: 3.12 mg/kg/injection, schedule: Q01DX009 (ip), vehicle: Klucel (hydroxypropylcellulose) (HPC)): 95 % of control
- T/C (dose: 6.25 mg/kg/injection, schedule: Q01DX009 (ip), vehicle: Klucel (hydroxypropylcellulose) (HPC)): 95 % of control
- T/C (dose: 9.2 mg/kg/injection, schedule: Q04DX003 (ip), vehicle: Klucel (hydroxypropylcellulose) (HPC)): 100 % of control
- T/C (dose: 14.0 mg/kg/injection, schedule: Q04DX003 (ip), vehicle: Klucel (hydroxypropylcellulose) (HPC)): 91 % of control
- T/C (dose: 21.0 mg/kg/injection, schedule: Q04DX003 (ip), vehicle: Klucel (hydroxypropylcellulose) (HPC)): 91 % of control
- T/C (dose: 29.0 mg/kg/injection, schedule: Q04DX003 (ip), vehicle: Klucel (hydroxypropylcellulose) (HPC)): 100 % of control

SMILES: NC(=S)N/N=C/c1ncccc1F
- T/C (dose: 25.0 mg/kg/injection, schedule: Q04DX003 (ip), vehicle: saline with Tween-80): 110 % of control
- T/C (dose: 50.0 mg/kg/injection, schedule: Q04DX003 (ip), vehicle: saline with Tween-80): 119 % of control

SMILES: Nc1ccn(C2OC(CO)C(O)C2O)c(=O)n1 (centres undefined)
- T/C (dose: 5.0 mg/kg/injection, schedule: Q01DX010 (ip), vehicle: saline): 190 % of control
- T/C (dose: 13.0 mg/kg/injection, schedule: Q03HX024 (ip), vehicle: saline): 300 % of control
- T/C (dose: 16.0 mg/kg/injection, schedule: Q01DX005 (ip), vehicle: saline): 170 % of control
- T/C (dose: 50.0 mg/kg/injection, schedule: Q01DX005 (ip), vehicle: Klucel (hydroxypropylcellulose) (HPC)): 150 % of control
- T/C (dose: 60.0 mg/kg/injection, schedule: Q01DX010 (ip), vehicle: water): 90 % of control and 110 % of control
- T/C (dose: 80.0 mg/kg/injection, schedule: Q01DX009 (ip), vehicle: water): 86 % of control
- T/C (dose: 80.0 mg/kg/injection, schedule: Q01DX010 (ip), vehicle: water): 90 % of control
- T/C (dose: 100.0 mg/kg/injection, schedule: Q01DX009 (ip), vehicle: saline): 100 % of control
- T/C (dose: 100.0 mg/kg/injection, schedule: Q01DX009 (ip), vehicle: water): 86 % of control and 90 % of control
- T/C (dose: 100.0 mg/kg/injection, schedule: Q01DX010 (ip), vehicle: water): 90 % of control
- T/C (dose: 160.0 mg/kg/injection, schedule: Q01DX010 (ip), vehicle: saline): 100 % of control
- T/C (dose: 200.0 mg/kg/injection, schedule: Q01DX001 (ip), vehicle: saline): 100 % of control
- T/C (dose: 200.0 mg/kg/injection, schedule: Q01DX009 (ip), vehicle: saline): 91 % of control and 110 % of control
- T/C (dose: 256.0 mg/kg/injection, schedule: Q01DX005 (ip), vehicle: saline): 96 % of control
- T/C (dose: 1500.0 mg/kg/injection, schedule: Q04DX003 (ip), vehicle: water): 200 % of control

— PubChem BioAssay AID328 (DTP/NCI, 2004)
